Measurements reported in the supplement of paper PMC6733853.

How the values were obtained:
[1] = target: mu opioid receptor (rat) (UniProt P33535)
[2] = target: mu opioid receptor (human) (UniProt P35372); assay: Log(tau/KA) transduction coefficient (log10 (M-1)); higher = more effective agonism; settings: receptor: human MOR
[3] = target: mu opioid receptor (rat) (UniProt P33535); assay: as above; settings: receptor: rat MOR
[4] = target: delta opioid receptor (human) (UniProt P41143); assay: as above; settings: receptor: human DOR
[5] = target: delta opioid receptor (rat) (UniProt P33533); assay: as above; settings: receptor: rat DOR
[6] = target: delta opioid receptor (rat) (UniProt P33533)

delta opioid receptor (human), sequence (P41143 whole entry): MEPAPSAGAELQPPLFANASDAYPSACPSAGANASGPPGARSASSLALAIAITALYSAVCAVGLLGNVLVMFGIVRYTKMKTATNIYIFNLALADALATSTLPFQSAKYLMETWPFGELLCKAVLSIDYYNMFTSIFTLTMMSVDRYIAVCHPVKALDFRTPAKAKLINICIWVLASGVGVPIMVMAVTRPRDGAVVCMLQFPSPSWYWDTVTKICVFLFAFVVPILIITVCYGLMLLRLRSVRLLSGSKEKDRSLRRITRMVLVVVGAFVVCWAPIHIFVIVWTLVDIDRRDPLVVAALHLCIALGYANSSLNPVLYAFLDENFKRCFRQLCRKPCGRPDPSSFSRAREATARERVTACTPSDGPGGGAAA
delta opioid receptor (rat), sequence (P33533 whole entry): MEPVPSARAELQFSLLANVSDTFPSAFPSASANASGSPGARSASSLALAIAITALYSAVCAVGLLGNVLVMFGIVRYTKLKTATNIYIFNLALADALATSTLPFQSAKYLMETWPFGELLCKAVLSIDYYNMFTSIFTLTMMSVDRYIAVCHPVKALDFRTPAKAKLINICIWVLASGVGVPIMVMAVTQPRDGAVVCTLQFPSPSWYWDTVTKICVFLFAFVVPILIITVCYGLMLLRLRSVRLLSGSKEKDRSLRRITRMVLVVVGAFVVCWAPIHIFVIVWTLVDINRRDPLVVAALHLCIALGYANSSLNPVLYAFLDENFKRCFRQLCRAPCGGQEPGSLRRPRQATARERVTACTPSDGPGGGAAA
mu opioid receptor (human), sequence (P35372 whole entry): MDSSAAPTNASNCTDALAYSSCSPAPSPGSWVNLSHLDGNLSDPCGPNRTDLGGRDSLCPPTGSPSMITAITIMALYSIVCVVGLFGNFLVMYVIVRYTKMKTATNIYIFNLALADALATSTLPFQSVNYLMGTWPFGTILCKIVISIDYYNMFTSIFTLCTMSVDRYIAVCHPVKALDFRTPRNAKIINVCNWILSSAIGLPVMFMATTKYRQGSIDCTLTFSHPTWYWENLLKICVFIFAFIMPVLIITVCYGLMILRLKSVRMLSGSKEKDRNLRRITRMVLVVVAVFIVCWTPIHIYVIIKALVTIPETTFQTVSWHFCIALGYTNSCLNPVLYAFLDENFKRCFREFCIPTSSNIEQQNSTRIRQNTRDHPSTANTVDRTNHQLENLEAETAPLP
mu opioid receptor (rat), sequence (P33535 whole entry): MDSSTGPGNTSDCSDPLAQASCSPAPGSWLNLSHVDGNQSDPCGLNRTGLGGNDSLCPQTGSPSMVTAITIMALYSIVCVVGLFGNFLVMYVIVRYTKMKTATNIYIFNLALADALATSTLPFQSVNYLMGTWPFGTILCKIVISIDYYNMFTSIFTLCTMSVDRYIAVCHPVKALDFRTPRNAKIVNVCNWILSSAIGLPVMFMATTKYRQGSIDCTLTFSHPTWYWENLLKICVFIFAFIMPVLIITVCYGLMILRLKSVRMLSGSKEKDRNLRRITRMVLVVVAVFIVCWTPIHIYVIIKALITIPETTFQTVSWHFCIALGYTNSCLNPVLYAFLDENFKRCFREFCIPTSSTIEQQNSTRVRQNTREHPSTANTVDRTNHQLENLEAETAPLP

Structure (SMILES)	Log(tau/KA) transduction coefficient (log10) ([3]; Gαi1)	Log(tau/KA) transduction coefficient (log10) ([3]; Gαi2)	Log(tau/KA) transduction coefficient (log10) ([3]; Gαo)	Log(tau/KA) transduction coefficient (log10) ([3]; Kir)	Log(tau/KA) transduction coefficient (log10) ([3]; cAMP)	Log(tau/KA) transduction coefficient (log10) ([4]; Gαi1)	Log(tau/KA) transduction coefficient (log10) ([4]; Gαi2)	Log(tau/KA) transduction coefficient (log10) ([4]; Gαo)	Log(tau/KA) transduction coefficient (log10) ([4]; Kir)	Log(tau/KA) transduction coefficient (log10) ([4]; cAMP)	Log(tau/KA) transduction coefficient (log10) ([4]; βarrestine 2-GRK6)	Log(tau/KA) transduction coefficient (log10) ([5]; Gαi1)	Log(tau/KA) transduction coefficient (log10) ([5]; Gαi2)	Log(tau/KA) transduction coefficient (log10) ([5]; Gαo)	Log(tau/KA) transduction coefficient (log10) ([5]; Kir)	Log(tau/KA) transduction coefficient (log10) ([5]; cAMP)	Log(tau/KA) transduction coefficient (log10) ([3]; βarrestine 2)	Log(tau/KA) transduction coefficient (log10) ([3]; βarrestine 2-GRK2)	Log(tau/KA) transduction coefficient (log10) ([3]; βarrestine 2-GRK5)	Log(tau/KA) transduction coefficient (log10) ([3]; βarrestine 2-GRK6)	also measured
CCC1(c2cccc(O)c2)CCCCN(C)C1 (stereo not given) [Meptazinol] (receptor: rat MOR)																					pEC50 ([1]; Gαi1): 5.94; pEC50 ([1]; Gαi2): 6.52; pEC50 ([1]; Gαo): 6.28; pEC50 ([1]; Kir): 6.08; pEC50 ([1]; cAMP): 6.99
COc1cccc(C2(O)CCCCC2CN(C)C)c1 (stereo not given) [Tramadol]	2.98	4.73	3.82	3.81	5.02																Log(tau/KA) transduction coefficient (log10) ([2]; Gαi1): 3.39; Log(tau/KA) transduction coefficient (log10) ([2]; Gαi2): 4.54; Log(tau/KA) transduction coefficient (log10) ([2]; Gαo): 4.27; Log(tau/KA) transduction coefficient (log10) ([2]; Kir): 3.78; Log(tau/KA) transduction coefficient (log10) ([2]; cAMP): 6.29
CN1CC[C@]23c4c5ccc(O)c4O[C@H]2[C@@H](O)C=C[C@H]3[C@H]1C5 [Morphine]	6.9	8.35	7.99	7.44	8.08	4.26	5.75	5.24	5.05	8.19	3.94	4.41	5.31	5.14	4.79	6.68	5.69	6.29	6.37	5.35	Log(tau/KA) transduction coefficient (log10) ([4]; βarrestine 2-GRK5): 4.04; Log(tau/KA) transduction coefficient (log10) ([5]; βarrestine 2): 4.16; Log(tau/KA) transduction coefficient (log10) ([5]; βarrestine 2-GRK2): 4.24; Log(tau/KA) transduction coefficient (log10) ([5]; βarrestine 2-GRK5): 4.53; Log(tau/KA) transduction coefficient (log10) ([5]; βarrestine 2-GRK6): 4.2
COc1ccc2c3c1O[C@H]1C(=O)CC[C@@]4(O)[C@@H](C2)N(C)CC[C@]314 [Oxycodone]	5.49	6.52	5.91	5.97	7.45	3.52	5.21	4.26	3.72	6.63	3.02	2.98	4.41	3.8	3.29	6.08		4.81	5.06	4.81	Log(tau/KA) transduction coefficient (log10) ([4]; βarrestine 2-GRK2): 3.82; Log(tau/KA) transduction coefficient (log10) ([4]; βarrestine 2-GRK5): 3.15; Log(tau/KA) transduction coefficient (log10) ([5]; βarrestine 2): 3.12; Log(tau/KA) transduction coefficient (log10) ([5]; βarrestine 2-GRK2): 3.16; Log(tau/KA) transduction coefficient (log10) ([5]; βarrestine 2-GRK5): 3.5; Log(tau/KA) transduction coefficient (log10) ([5]; βarrestine 2-GRK6): 3.31; Log(tau/KA) transduction coefficient (log10) ([3]; βarrestine 1): 5.5
CSCC[C@H](NC(=O)[C@H](Cc1ccccc1)NC(=O)CNC(=O)CNC(=O)[C@@H](N)Cc1ccc(O)cc1)C(=O)O [Met-Enk]	7.24	8.73	6.21	6.72	8.44	5.92	7.02	6.59	7.27	8.98	6.88	5.86	6.55	6.44	4.97	9.4	5.65	6.24	6.35	6.06	Log(tau/KA) transduction coefficient (log10) ([4]; βarrestine 1): 6.24; Log(tau/KA) transduction coefficient (log10) ([4]; βarrestine 2): 6.28; Log(tau/KA) transduction coefficient (log10) ([4]; βarrestine 2-GRK2): 6.57; Log(tau/KA) transduction coefficient (log10) ([4]; βarrestine 2-GRK5): 7.12; Log(tau/KA) transduction coefficient (log10) ([5]; βarrestine 1): 6.29; Log(tau/KA) transduction coefficient (log10) ([5]; βarrestine 2): 6.58; Log(tau/KA) transduction coefficient (log10) ([5]; βarrestine 2-GRK2): 6.67; Log(tau/KA) transduction coefficient (log10) ([5]; βarrestine 2-GRK5): 7.03; Log(tau/KA) transduction coefficient (log10) ([5]; βarrestine 2-GRK6): 6.83; Log(tau/KA) transduction coefficient (log10) ([2]; Gαi1): 6.47; Log(tau/KA) transduction coefficient (log10) ([2]; Gαi2): 7.32; Log(tau/KA) transduction coefficient (log10) ([2]; Gαo): 7.4; Log(tau/KA) transduction coefficient (log10) ([2]; Kir): 6.58; Log(tau/KA) transduction coefficient (log10) ([2]; cAMP): 8.62; Log(tau/KA) transduction coefficient (log10) ([2]; βarrestine 1): 5.9; Log(tau/KA) transduction coefficient (log10) ([2]; βarrestine 2): 5.97; Log(tau/KA) transduction coefficient (log10) ([2]; βarrestine 2-GRK2): 6.66; Log(tau/KA) transduction coefficient (log10) ([2]; βarrestine 2-GRK5): 6.65; Log(tau/KA) transduction coefficient (log10) ([2]; βarrestine 2-GRK6): 6.36; Log(tau/KA) transduction coefficient (log10) ([3]; βarrestine 1): 5.63
CO[C@@]12CC[C@@]3(C[C@@H]1[C@](C)(O)C(C)(C)C)[C@H]1Cc4ccc(O)c5c4[C@@]3(CCN1CC1CC1)[C@H]2O5 [Buprenorphine] (receptor: rat DOR)																					pEC50 ([6]; Gαi1): 7.49; pEC50 ([6]; Gαi2): 6.88; pEC50 ([6]; Gαo): 7.28; pEC50 ([6]; Kir): 5.53; pEC50 ([6]; cAMP): 7.78
CN(C)C(=O)C(CCN1CCC(O)(c2ccc(Cl)cc2)CC1)(c1ccccc1)c1ccccc1 [Loperamide]	7.2	8.27	7.56	6.46	7.69	4.52	5.79	5.28	5.54	7.28	4.63	4.78	5.24	5.22	5.02	5.9	5.68	6.37	6.39	6.04	Log(tau/KA) transduction coefficient (log10) ([4]; βarrestine 1): 4.05; Log(tau/KA) transduction coefficient (log10) ([4]; βarrestine 2): 4.37; Log(tau/KA) transduction coefficient (log10) ([4]; βarrestine 2-GRK2): 4.62; Log(tau/KA) transduction coefficient (log10) ([4]; βarrestine 2-GRK5): 4.71; Log(tau/KA) transduction coefficient (log10) ([5]; βarrestine 1): 3.96; Log(tau/KA) transduction coefficient (log10) ([5]; βarrestine 2): 4.1; Log(tau/KA) transduction coefficient (log10) ([5]; βarrestine 2-GRK2): 4.29; Log(tau/KA) transduction coefficient (log10) ([5]; βarrestine 2-GRK5): 4.61; Log(tau/KA) transduction coefficient (log10) ([5]; βarrestine 2-GRK6): 4.48; Log(tau/KA) transduction coefficient (log10) ([3]; βarrestine 1): 6.08
CCC1(c2cccc(O)c2)CCCCN(C)C1 (stereo not given) [Meptazinol]	5.15	6.21	5.38	5.41	6.58																Log(tau/KA) transduction coefficient (log10) ([2]; Gαi1): 5.23; Log(tau/KA) transduction coefficient (log10) ([2]; Gαi2): 6.1; Log(tau/KA) transduction coefficient (log10) ([2]; Gαo): 6.31; Log(tau/KA) transduction coefficient (log10) ([2]; Kir): 4.84; Log(tau/KA) transduction coefficient (log10) ([2]; cAMP): 8.02
CO[C@@]12CC[C@@]3(C[C@@H]1[C@](C)(O)C(C)(C)C)[C@H]1Cc4ccc(O)c5c4[C@@]3(CCN1CC1CC1)[C@H]2O5 [Buprenorphine]	6.88	7.63	7.28	8.05	6.93	5.51	6.73	6.61	4.88	8.45	3.5	6.16	6.14	6.06	4.6	7.87	5.04	5.79	5.36		
C[C@@H](NC(=O)[C@@H](N)Cc1ccc(O)cc1)C(=O)NCC(=O)N(C)[C@@H](Cc1ccccc1)C(=O)NCCO [DAMGO]	6.18	7.5	6.49	7.11	8.44												5.51	6.21	6.26	5.9	Log(tau/KA) transduction coefficient (log10) ([3]; βarrestine 1): 5.59
CN(C)C(=O)C(CCN1CCC(O)(c2ccc(Cl)cc2)CC1)(c1ccccc1)c1ccccc1 [Loperamide] (receptor: rat DOR)																					pEC50 ([6]; Gαi1): 5.05; pEC50 ([6]; Gαi2): 5.42; pEC50 ([6]; Gαo): 5.51; pEC50 ([6]; Kir): 5.23; pEC50 ([6]; cAMP): 6.1; pEC50 ([6]; βarrestine 1): 4.55; pEC50 ([6]; βarrestine 2): 4.47; pEC50 ([6]; βarrestine 2-GRK2): 4.36; pEC50 ([6]; βarrestine 2-GRK5): 4.83; pEC50 ([6]; βarrestine 2-GRK6): 4.54
